SMILES strings stand for the structures.

Common to all, as to test: biochemical
Holding throughout (assay type): binding

In experiment [1] the target is T1, panel of 442 kinases (Homo sapiens, UniProt P12931).
T1 construct: purchased Ambit Biosciences (scanMAXX KINOMEscan)
The settings on record: kinase SRC; for remaining activity at 1 µM: read-out: SRC (% of control at 1 µM).

Experiment [2] has as its target T2, panel of 442 kinases (Homo sapiens, UniProt Q9H0K1).
T2 construct: purchased Ambit Biosciences (scanMAXX KINOMEscan)
The settings on record: kinase SIK2; for remaining activity at 1 µM: read-out: SIK2 (% of control at 1 µM).

For experiment [3], the target named is T3, panel of 442 kinases (Homo sapiens, UniProt P00533, DEL752-759).
T3 construct: purchased Ambit Biosciences (scanMAXX KINOMEscan)
The settings on record: EGFR(S752-I759del); for remaining activity at 1 µM: read-out: % of control at 1 µM.

The target in experiment [4] is T4, panel of 442 kinases (Homo sapiens, UniProt P00519, E255K).
T4 construct: purchased Ambit Biosciences (scanMAXX KINOMEscan)
The settings on record: ABL1(E255K)-phosphorylated; for remaining activity at 1 µM: read-out: % of control at 1 µM.

Experiment [5] deals with T5, panel of 442 kinases (Homo sapiens, UniProt Q86UX6).
T5 construct: purchased Ambit Biosciences (scanMAXX KINOMEscan)
The settings on record: kinase YANK3; for remaining activity at 1 µM: read-out: YANK3 (% of control at 1 µM).

The target in experiment [6] is T6, panel of 442 kinases (Homo sapiens, UniProt P08581).
T6 construct: purchased Ambit Biosciences (scanMAXX KINOMEscan)
The settings on record: kinase MET; for remaining activity at 1 µM: read-out: % of control at 1 µM.

Experiment [7] deals with T7, panel of 442 kinases (Homo sapiens, UniProt P19784).
T7 construct: purchased Ambit Biosciences (scanMAXX KINOMEscan)
The settings on record: CSNK2A2; for remaining activity at 1 µM: read-out: % of control at 1 µM.

The target in experiment [8] is T8, panel of 442 kinases (Homo sapiens, UniProt Q8NE63).
T8 construct: purchased Ambit Biosciences (scanMAXX KINOMEscan)
T8 sequence (Q8NE63 1-616): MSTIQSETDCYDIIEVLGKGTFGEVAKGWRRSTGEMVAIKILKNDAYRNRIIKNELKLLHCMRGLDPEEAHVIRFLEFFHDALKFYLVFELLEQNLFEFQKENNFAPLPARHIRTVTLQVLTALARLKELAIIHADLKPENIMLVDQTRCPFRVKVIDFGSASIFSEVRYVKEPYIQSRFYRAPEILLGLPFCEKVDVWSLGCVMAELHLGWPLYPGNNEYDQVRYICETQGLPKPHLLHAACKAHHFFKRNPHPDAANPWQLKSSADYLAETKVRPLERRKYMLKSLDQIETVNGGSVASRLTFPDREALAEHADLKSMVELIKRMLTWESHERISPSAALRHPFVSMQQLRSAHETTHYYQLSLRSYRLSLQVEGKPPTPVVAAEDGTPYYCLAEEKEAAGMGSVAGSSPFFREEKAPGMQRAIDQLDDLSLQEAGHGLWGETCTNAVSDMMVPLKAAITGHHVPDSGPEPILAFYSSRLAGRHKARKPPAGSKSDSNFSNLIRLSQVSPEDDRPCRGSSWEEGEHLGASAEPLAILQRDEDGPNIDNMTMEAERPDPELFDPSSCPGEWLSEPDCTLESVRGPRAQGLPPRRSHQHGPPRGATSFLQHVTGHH
The settings on record: kinase HIPK4; for remaining activity at 1 µM: read-out: % of control at 1 µM.

For experiment [9], the target named is T9, panel of 442 kinases (Homo sapiens, UniProt P22607, G697C).
T9 construct: purchased Ambit Biosciences (scanMAXX KINOMEscan)
The settings on record: FGFR3(G697C); for remaining activity at 1 µM: read-out: % of control at 1 µM.

The target in experiment [10] is T10, panel of 442 kinases (Homo sapiens, UniProt Q86YV6).
T10 construct: purchased Ambit Biosciences (scanMAXX KINOMEscan)
T10 sequence (Q86YV6 1-388): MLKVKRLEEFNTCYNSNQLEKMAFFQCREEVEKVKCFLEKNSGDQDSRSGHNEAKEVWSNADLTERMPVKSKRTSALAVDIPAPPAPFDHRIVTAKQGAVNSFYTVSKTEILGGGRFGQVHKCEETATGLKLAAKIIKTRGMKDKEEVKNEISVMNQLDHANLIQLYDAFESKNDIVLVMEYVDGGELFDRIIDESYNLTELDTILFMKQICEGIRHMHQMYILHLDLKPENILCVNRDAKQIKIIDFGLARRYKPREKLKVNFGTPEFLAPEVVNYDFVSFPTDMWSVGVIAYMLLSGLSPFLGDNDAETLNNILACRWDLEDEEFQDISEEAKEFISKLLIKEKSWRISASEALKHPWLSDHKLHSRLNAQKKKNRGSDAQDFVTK
The settings on record: kinase MYLK4; for remaining activity at 1 µM: read-out: % of control at 1 µM.

Experiment [11] concerns the target T11, panel of 442 kinases (Homo sapiens, UniProt P51817).
T11 construct: purchased Ambit Biosciences (scanMAXX KINOMEscan)
T11 sequence (P51817 1-358): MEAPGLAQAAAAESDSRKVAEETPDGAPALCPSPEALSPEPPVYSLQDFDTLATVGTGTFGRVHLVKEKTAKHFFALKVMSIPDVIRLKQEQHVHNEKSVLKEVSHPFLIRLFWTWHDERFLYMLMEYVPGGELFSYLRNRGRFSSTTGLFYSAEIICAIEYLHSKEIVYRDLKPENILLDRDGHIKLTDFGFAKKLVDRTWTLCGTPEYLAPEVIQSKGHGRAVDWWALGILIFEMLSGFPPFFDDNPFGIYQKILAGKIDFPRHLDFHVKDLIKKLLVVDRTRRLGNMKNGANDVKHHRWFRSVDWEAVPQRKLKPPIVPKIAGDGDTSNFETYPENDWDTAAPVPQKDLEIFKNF
The settings on record: kinase PRKX; for remaining activity at 1 µM: read-out: PRKX (% of control at 1 µM).

Experiment [12] concerns the target T12, panel of 442 kinases (Homo sapiens, UniProt P49761).
T12 construct: purchased Ambit Biosciences (scanMAXX KINOMEscan)
The settings on record: CLK3; for remaining activity at 1 µM: read-out: % of control at 1 µM.

For experiment [13], the target named is T13, panel of 442 kinases (Homo sapiens, UniProt Q13464).
T13 construct: purchased Ambit Biosciences (scanMAXX KINOMEscan)
The settings on record: kinase ROCK1; for remaining activity at 1 µM: read-out: ROCK1 (% of control at 1 µM).

Where [14] appears, read: 10 µM, read-out: % of control at 10 µM.

T1 sequence (P12931 whole entry): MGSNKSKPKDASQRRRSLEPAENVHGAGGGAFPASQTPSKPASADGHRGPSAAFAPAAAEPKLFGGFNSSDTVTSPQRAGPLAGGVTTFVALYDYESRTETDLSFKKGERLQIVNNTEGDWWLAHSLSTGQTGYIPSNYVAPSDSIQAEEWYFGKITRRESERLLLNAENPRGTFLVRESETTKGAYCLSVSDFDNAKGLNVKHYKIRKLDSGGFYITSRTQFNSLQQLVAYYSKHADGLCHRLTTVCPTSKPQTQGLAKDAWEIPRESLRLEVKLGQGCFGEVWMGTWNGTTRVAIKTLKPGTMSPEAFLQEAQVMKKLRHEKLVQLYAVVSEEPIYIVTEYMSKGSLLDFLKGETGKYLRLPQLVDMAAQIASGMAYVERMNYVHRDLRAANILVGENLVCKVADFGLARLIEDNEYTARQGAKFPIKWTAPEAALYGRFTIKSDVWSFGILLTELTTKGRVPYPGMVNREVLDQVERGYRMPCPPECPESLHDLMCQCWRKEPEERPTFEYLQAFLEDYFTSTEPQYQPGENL
T4 sequence (P00519 whole entry E255K): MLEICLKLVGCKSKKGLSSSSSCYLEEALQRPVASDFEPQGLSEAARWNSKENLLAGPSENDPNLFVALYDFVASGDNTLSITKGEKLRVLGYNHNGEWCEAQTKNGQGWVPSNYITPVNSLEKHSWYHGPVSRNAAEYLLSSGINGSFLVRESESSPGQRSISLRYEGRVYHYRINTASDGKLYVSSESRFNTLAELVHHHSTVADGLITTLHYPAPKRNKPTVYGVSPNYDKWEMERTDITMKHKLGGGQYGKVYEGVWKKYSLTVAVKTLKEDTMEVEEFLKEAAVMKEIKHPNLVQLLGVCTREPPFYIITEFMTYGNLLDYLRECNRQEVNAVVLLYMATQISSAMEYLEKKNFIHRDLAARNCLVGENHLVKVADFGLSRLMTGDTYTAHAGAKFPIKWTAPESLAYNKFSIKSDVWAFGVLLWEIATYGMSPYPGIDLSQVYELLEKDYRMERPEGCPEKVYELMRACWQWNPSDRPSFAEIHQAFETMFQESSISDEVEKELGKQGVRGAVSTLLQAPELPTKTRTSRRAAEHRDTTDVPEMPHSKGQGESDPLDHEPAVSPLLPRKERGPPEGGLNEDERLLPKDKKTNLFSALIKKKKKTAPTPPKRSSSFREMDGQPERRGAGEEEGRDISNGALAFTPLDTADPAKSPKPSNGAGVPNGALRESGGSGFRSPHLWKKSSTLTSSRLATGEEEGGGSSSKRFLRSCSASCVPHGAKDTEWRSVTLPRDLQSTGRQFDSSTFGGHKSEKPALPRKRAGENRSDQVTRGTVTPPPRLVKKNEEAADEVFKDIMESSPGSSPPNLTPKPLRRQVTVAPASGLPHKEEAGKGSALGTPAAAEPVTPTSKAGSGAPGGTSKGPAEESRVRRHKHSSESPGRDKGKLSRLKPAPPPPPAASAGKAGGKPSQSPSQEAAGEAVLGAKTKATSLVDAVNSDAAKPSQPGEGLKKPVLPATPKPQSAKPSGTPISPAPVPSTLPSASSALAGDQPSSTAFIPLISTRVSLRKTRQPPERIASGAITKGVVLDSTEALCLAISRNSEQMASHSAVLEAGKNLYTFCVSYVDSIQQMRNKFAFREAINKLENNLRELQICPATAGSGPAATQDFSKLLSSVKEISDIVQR
T7 sequence (P19784 whole entry): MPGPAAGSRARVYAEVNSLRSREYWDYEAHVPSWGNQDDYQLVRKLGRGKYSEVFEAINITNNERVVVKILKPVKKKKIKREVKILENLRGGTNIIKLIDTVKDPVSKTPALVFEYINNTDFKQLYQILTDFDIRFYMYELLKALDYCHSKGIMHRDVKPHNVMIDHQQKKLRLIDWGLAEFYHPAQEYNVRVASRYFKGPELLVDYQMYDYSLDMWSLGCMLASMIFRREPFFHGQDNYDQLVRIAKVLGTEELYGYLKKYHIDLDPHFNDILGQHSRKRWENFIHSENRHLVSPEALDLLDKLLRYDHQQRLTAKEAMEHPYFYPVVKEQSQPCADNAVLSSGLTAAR
T5 sequence (Q86UX6 whole entry): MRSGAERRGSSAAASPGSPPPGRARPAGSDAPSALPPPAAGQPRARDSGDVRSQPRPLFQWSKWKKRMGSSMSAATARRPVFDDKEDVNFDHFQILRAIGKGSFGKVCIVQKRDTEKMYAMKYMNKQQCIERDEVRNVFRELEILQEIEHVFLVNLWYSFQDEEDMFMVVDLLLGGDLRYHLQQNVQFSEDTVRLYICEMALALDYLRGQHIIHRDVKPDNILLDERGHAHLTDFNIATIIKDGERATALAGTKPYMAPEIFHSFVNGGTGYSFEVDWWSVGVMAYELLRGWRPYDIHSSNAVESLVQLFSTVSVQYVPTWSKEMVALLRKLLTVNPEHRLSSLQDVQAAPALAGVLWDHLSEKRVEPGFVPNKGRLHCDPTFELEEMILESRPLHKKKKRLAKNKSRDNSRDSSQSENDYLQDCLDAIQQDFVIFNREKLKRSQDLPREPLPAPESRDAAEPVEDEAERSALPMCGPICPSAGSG
T9 sequence (P22607 23-806 G697C): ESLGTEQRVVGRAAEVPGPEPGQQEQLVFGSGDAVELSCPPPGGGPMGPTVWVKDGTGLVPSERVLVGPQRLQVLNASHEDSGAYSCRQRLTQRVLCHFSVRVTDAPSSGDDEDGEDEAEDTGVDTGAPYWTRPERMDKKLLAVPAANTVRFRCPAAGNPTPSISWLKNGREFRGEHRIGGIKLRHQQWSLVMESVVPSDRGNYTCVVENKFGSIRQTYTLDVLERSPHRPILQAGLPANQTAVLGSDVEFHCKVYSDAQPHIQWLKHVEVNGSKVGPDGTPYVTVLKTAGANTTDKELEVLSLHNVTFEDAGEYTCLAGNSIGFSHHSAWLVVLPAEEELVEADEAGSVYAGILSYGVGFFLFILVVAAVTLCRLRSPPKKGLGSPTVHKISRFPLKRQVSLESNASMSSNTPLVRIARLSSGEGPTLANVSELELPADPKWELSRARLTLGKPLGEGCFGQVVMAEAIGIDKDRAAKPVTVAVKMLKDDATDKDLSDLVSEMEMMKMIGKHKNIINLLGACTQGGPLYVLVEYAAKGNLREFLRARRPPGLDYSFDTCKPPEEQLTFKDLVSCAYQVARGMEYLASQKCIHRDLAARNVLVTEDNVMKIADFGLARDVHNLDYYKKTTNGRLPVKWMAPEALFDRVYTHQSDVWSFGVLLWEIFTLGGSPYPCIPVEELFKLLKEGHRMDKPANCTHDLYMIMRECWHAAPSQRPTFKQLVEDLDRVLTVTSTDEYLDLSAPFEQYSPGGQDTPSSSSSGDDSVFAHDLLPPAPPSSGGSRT
T2 sequence (Q9H0K1 whole entry): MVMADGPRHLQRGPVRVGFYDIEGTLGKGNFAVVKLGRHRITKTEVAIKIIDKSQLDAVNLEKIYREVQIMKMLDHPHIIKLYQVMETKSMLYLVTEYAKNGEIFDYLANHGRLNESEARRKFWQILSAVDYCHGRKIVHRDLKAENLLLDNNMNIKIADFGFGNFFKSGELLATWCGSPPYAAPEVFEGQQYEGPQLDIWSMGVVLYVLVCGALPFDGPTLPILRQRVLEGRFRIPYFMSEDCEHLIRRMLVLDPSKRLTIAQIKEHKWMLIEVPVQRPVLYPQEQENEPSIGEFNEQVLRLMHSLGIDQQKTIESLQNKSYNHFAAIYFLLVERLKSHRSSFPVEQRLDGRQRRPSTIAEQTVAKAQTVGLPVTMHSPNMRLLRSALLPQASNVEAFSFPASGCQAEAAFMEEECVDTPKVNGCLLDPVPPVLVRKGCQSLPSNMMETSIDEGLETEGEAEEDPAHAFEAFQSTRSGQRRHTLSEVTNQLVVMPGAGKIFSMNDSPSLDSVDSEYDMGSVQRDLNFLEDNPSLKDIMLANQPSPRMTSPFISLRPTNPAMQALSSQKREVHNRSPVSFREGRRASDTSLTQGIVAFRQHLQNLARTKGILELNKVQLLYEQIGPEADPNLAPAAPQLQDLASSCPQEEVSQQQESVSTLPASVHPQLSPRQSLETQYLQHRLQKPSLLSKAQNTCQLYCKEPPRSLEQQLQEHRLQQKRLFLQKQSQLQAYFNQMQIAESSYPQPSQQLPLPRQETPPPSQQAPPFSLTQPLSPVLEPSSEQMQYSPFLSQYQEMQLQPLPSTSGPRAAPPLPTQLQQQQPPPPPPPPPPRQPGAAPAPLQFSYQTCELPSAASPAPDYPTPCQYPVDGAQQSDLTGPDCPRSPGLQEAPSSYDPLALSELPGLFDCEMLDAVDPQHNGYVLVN
T12 sequence (P49761 whole entry): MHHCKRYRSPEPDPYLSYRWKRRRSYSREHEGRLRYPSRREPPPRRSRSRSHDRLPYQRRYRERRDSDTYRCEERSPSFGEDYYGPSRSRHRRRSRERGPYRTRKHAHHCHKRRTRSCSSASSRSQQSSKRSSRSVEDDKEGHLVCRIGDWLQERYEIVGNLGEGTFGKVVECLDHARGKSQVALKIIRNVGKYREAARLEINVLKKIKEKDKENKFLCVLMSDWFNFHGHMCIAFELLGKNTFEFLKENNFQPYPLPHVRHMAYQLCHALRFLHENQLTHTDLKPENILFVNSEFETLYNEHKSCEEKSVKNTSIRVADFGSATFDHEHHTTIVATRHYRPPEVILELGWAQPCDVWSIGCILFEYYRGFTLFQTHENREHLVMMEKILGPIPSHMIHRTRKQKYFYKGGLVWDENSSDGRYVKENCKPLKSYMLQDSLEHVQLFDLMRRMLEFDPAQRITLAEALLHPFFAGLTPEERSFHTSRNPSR

As for `Nc1cc(C(F)(F)F)c(-c2cc(N3CCOCC3)nc(N3CCOCC3)n2)cn1` [Buparlisib], the remaining activity at 1 µM on panel of 442 kinases [1] came to 94%; on panel of 442 kinases [2], 100%; on panel of 442 kinases [3], 83%; at panel of 442 kinases [4] it was 74%; at panel of 442 kinases [5], 94%; at panel of 442 kinases [6], 100%. The remaining activity at 1 µM came to 84% at panel of 442 kinases [7]; 97% at panel of 442 kinases [8]; 86% at panel of 442 kinases [9]; 100% on panel of 442 kinases [10]; 100% at panel of 442 kinases [11]; 100% on panel of 442 kinases [12]. Moreover, the remaining activity at 1 µM at panel of 442 kinases [13] stood at 86%. The remaining activity at 10 µM on panel of 442 kinases [1] (10 µM, read-out: SRC (% of control at 10 µM)) is 100%; on panel of 442 kinases [2] (10 µM, read-out: SIK2 (% of control at 10 µM)), 93%; at panel of 442 kinases [3] (setting [14]), 87%; at panel of 442 kinases [4] (setting [14]) it was 96%; at panel of 442 kinases [5] (10 µM, read-out: YANK3 (% of control at 10 µM)) it was 100%; at panel of 442 kinases [6] (setting [14]), 100%. The remaining activity at 10 µM was found to be 75% at panel of 442 kinases [7] (setting [14]); 100% on panel of 442 kinases [8] (setting [14]); 100% on panel of 442 kinases [9] (setting [14]); 100% on panel of 442 kinases [10] (setting [14]); 100% on panel of 442 kinases [11] (10 µM, read-out: PRKX (% of control at 10 µM)); 94% at panel of 442 kinases [12] (setting [14]). The remaining activity at 10 µM at panel of 442 kinases [13] (10 µM, read-out: ROCK1 (% of control at 10 µM)) is 80%.

With `Cn1c(=O)n(-c2ccc(C(C)(C)C#N)cc2)c2c3cc(-c4cnc5ccccc5c4)ccc3ncc21` [Dactolisib, 2-methyl-2-[4-(3-methyl-2-oxo-8-quinolin-3-yl-2,3-dihydroimidazo[4,5-c]quinolin-1-yl)-phenyl] propionitrile], the remaining activity at 1 µM at panel of 442 kinases [1] came to 94%; on panel of 442 kinases [2], 82%; on panel of 442 kinases [3] it was 100%; on panel of 442 kinases [4], 79%; at panel of 442 kinases [5] it was 88%; at panel of 442 kinases [7], 99%. Moreover, the remaining activity at 1 µM is 87% on panel of 442 kinases [8]; 90% at panel of 442 kinases [9]; 95% on panel of 442 kinases [10]; 77% on panel of 442 kinases [11]; 50% on panel of 442 kinases [12]; 52% at panel of 442 kinases [13].

As to `FC(F)c1nc2ccccc2n1-c1nc(N2CCOCC2)nc(N2CCOCC2)n1` [ZSTK474, 2-(difluoromethyl)-1-[4,6-di(4-morpholinyl)-1,3,5-triazin-2-yl]-1H-benzimidazole], the remaining activity at 1 µM on panel of 442 kinases [1] worked out at 100%; on panel of 442 kinases [2], 78%; at panel of 442 kinases [3], 100%; on panel of 442 kinases [4] it was 100%; at panel of 442 kinases [5], 73%; on panel of 442 kinases [6], 100%. Also, the remaining activity at 1 µM came out at 88% at panel of 442 kinases [7]; 77% at panel of 442 kinases [8]; 100% at panel of 442 kinases [9]; 100% at panel of 442 kinases [10]; 100% on panel of 442 kinases [11]; 100% on panel of 442 kinases [12]. Further, at panel of 442 kinases [13], the remaining activity at 1 µM is 75%.

Regarding `COc1ncc(-c2ccc3nccc(-c4ccnnc4)c3c2)cc1NS(=O)(=O)c1ccc(F)cc1F` [Omipalisib], the remaining activity at 1 µM worked out at 100% on panel of 442 kinases [1]; 100% on panel of 442 kinases [2]; 100% on panel of 442 kinases [3]; 95% at panel of 442 kinases [4]; 100% on panel of 442 kinases [5]; 99% on panel of 442 kinases [6]. Besides, the remaining activity at 1 µM on panel of 442 kinases [7] amounted to 75%; at panel of 442 kinases [8], 98%; on panel of 442 kinases [9], 68%; at panel of 442 kinases [10] it was 84%; on panel of 442 kinases [11], 100%; on panel of 442 kinases [12] it was 93%. Also, at panel of 442 kinases [13], the remaining activity at 1 µM came to 88%.
